From PubChem BioAssay (NCI)
Where “and” joins values, the source holds several entries; their conditions need not be identical. Equal entries are not always repeated.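 Step 1: Grow cells in 96-well plates. Step 2: Expose to compound for 48 hours at 5 concentrations. Step 3: Interpolate endpoints linearly; if unreached, use highest concentration. GI50 is the concentration that inhibits growth by half. TGI denotes the concentration required for complete inhibition of growth.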

Legend:
Experiment in all cases: NCI anticancer screen, dose series, 48 h
K-562 leukemia = test system: K-562 leukemia
SK-MEL-28 melanoma = test system: SK-MEL-28 melanoma
SNB-75 CNS = test system: SNB-75 CNS
NCI-H522 lung = test system: NCI-H522 lung
MCF7 breast = test system: MCF7 breast
UACC-62 melanoma = test system: UACC-62 melanoma
CCRF-CEM leukemia = test system: CCRF-CEM leukemia
HCC-2998 colon = test system: HCC-2998 colon
786-0 renal = test system: 786-0 renal
RXF 393 renal = test system: RXF 393 renal

SMILES	GI50 (K-562 leukemia)	TGI (K-562 leukemia)	GI50 (SK-MEL-28 melanoma)	TGI (SK-MEL-28 melanoma)	GI50 (SNB-75 CNS)	TGI (SNB-75 CNS)	GI50 (NCI-H522 lung)	TGI (NCI-H522 lung)	GI50 (MCF7 breast)	TGI (MCF7 breast)	GI50 (UACC-62 melanoma)	TGI (UACC-62 melanoma)	GI50 (CCRF-CEM leukemia)	TGI (CCRF-CEM leukemia)	GI50 (HCC-2998 colon)	TGI (HCC-2998 colon)	GI50 (786-0 renal)	TGI (786-0 renal)	GI50 (RXF 393 renal)	TGI (RXF 393 renal)
Cc1cc(-c2nc(C(=O)Nc3cc4oc(N5CCOCC5)nc4nc3N3CC[C@@H](O)C3)co2)ccn1	41.2 µM	> 100 µM	56.2 µM	> 100 µM	9.41 µM	69.2 µM	20 µM	> 100 µM	84.1 µM	> 100 µM	57 µM	> 100 µM	29.4 µM	> 100 µM	55 µM	> 100 µM	68.7 µM	> 100 µM	17.9 µM	> 100 µM
Cn1cc(C2=C(c3c4n(c5ccccc35)CCCCC4)C(=O)NC2=O)c2ccccc21	1.38 µM	> 25 µM	12.6 µM	> 25 µM	1.4 µM	11.6 µM	1.02 µM	8.14 µM	1.36 µM	> 25 µM	1.27 µM	> 25 µM	5.21 µM	> 22.7 µM	12.4 µM	> 25 µM	7.76 µM	> 25 µM	1.42 µM	7.23 µM
O=C(Nc1ccccc1)c1c(O)[nH]c(=S)[nH]c1=O	85.3 µM	114 µM and > 250 µM	127 µM	124 µM and > 250 µM		91.9 µM	83 µM	58.3 µM and > 250 µM		92.8 µM	33 µM	55.2 µM and 162 µM	71.2 µM	83.3 µM and > 250 µM	95.3 µM	120 µM and > 250 µM		92.1 µM		96.3 µM and 68.9 µM
COc1cccc(-c2cc(-c3cccc(NS(C)(=O)=O)c3)nc(N)c2C#N)c1O	0.0508 µM	> 100 µM	0.571 µM	> 100 µM	0.0797 µM	5.15 µM	0.0163 µM	0.075 µM	0.279 µM	> 100 µM	0.064 µM	> 100 µM	0.153 µM	> 100 µM	0.328 µM	> 27.1 µM	0.375 µM	> 100 µM	0.104 µM	1.39 µM
Cc1cnc(NCCCN(C)C)c2c1[nH]c1ccc3cc(O)ccc3c12		3.68 µM		2.86 µM		1.87 µM		0.624 µM		2.15 µM		1.9 µM		5.88 µM		1.98 µM		1.84 µM		2.16 µM
CCN(CC)N=Nc1c(C(N)=O)n[nH]c1C				> 100 µM		> 100 µM		> 100 µM		> 100 µM		> 100 µM		54.5 µM		> 100 µM		> 100 µM		> 100 µM
COc1cc2c(c(OC)c1OC)-c1ccc(NNC(N)=S)c(=O)cc1[C@@H](NC(C)=O)CC2	0.348 µM	> 100 µM	0.777 µM	> 100 µM		> 100 µM	0.55 µM	> 100 µM	0.372 µM	> 100 µM	0.666 µM	> 100 µM	0.434 µM	> 100 µM	0.263 µM		0.867 µM	> 100 µM	0.298 µM	0.747 µM
C=CCOc1ccc2c(C)cc(=O)oc2c1C		> 100 µM		> 100 µM		> 100 µM		81.4 µM		> 100 µM		> 100 µM		> 100 µM		> 100 µM		> 100 µM		63.9 µM
Fc1[nH]nc2ccc([C@@H]3Nc4ccc5[nH]ncc5c4[C@H]4C5CCC(C5)[C@@H]34)cc12 (stereo partly drawn)	0.324 µM	13.9 µM	1.54 µM	16.2 µM	0.503 µM	3.93 µM	0.432 µM	9.27 µM	0.387 µM	12.6 µM	0.849 µM	13.2 µM	0.514 µM	16.5 µM	3.14 µM	12.8 µM	2.82 µM	15.6 µM	1.22 µM	7.8 µM
CN1CCCCC1CCN1c2ccccc2Sc2ccc(Cl)cc21 (stereo not drawn)	2.6 µM	7.57 µM	2.23 µM	5.9 µM	1.54 µM	6.19 µM	2.31 µM	7.37 µM	2.68 µM	9 µM	2.16 µM	5.61 µM	3.81 µM	13.5 µM	2.5 µM	5.85 µM	3.85 µM	14.5 µM	3.18 µM	8.47 µM
COc1cccc(C2c3cc4c(cc3OC(C)(N3CCCC3)C2C)OCO4)c1O (stereo not drawn)		18.3 µM		> 100 µM		17.2 µM		6.01 µM		> 37.1 µM		46.8 µM		21.2 µM		25.6 µM		> 56 µM		> 40.6 µM
Nc1c(C(=O)c2cccc(CCS(N)(=O)=O)c2)cnn1-c1ccc(F)cc1	> 25 µM	> 25 µM	> 25 µM	> 25 µM	> 25 µM	> 25 µM	> 25 µM	> 25 µM	> 25 µM	> 25 µM	> 25 µM	> 25 µM	> 25 µM	> 25 µM	> 25 µM	> 25 µM	> 25 µM	> 25 µM	> 25 µM	> 25 µM
COC([CH2][Hg][n]1cnc2c1c(=O)n(C)c(=O)n2C)CN1C(=O)c2ccccc2S1(=O)=O (stereo not drawn)	> 100 µM	> 100 µM	> 100 µM	> 100 µM	> 100 µM	> 100 µM	> 100 µM	> 100 µM	> 100 µM	> 100 µM	> 100 µM	> 100 µM			> 100 µM	> 100 µM	> 100 µM	> 100 µM	> 100 µM	> 100 µM
COc1cc(/C=N\NC(=O)CN2CCN(c3cc4c(cc3F)c(=O)c(C(=O)N/N=C/c3cc(OC)c(OC)c(OC)c3)cn4C3CC3)CC2)cc(OC)c1OC	0.363 µM	> 100 µM	0.359 µM	> 19.8 µM	0.53 µM	2.12 µM	0.249 µM		0.362 µM	> 100 µM	0.231 µM	0.583 µM	0.316 µM	> 100 µM	0.178 µM	0.33 µM	18.7 µM	> 100 µM	1.63 µM	30.4 µM
CCOC1Oc2ccccc2C(=O)/C1=C/Nc1ccc(C(C)=O)cc1 (stereo not drawn)	16.1 µM	40.5 µM	44.8 µM	> 100 µM	40.6 µM	> 100 µM	27.1 µM	87.3 µM	26.7 µM	> 100 µM	17.5 µM	42 µM	19.2 µM	62.2 µM	15.9 µM	35.4 µM	6.56 µM	25.4 µM	27 µM	72.6 µM
COC(=O)/C=C1\S/C(=N\NC(=O)c2cc3ccc2/C=C\c2ccc(cc2)/C=C\3)N(c2ccccc2)C1=O	3.15 µM	> 100 µM	2.97 µM	9.87 µM	5.44 µM	> 100 µM	4.89 µM	> 100 µM	1.87 µM	4.95 µM	1.96 µM	4.21 µM			1.78 µM	3.45 µM	2 µM	4.38 µM	1.52 µM	3.86 µM
COc1ccc2c(c1)sc1nc(-c3ccccc3)c(-c3cccc4ccccc34)n12	0.328 µM	> 100 µM	0.417 µM	> 100 µM	0.386 µM	> 100 µM	0.661 µM	28.2 µM	0.835 µM	> 33.4 µM	0.414 µM	> 100 µM	0.45 µM	> 100 µM	1.53 µM	36.6 µM	0.848 µM	> 100 µM	0.249 µM	1.29 µM
OCCN(CCO)c1ncnc2c1ncn2Cc1ccc(CCl)cc1	17.7 µM	> 100 µM	23.8 µM	63.8 µM	20.3 µM	40.9 µM	18.5 µM	46.6 µM	6.3 µM	32.5 µM	18 µM	33.5 µM	11 µM	47.1 µM	15.4 µM	28.9 µM	20.4 µM	37.8 µM	12 µM	37.1 µM
Nc1nc(-n2c(-c3ccccc3)nc3c(Br)cc(Br)cc3c2=O)nnc1-c1cccc(Cl)c1Cl	4.7 µM	7.66 µM	> 100 µM	> 100 µM	8.65 µM	46.7 µM	20.8 µM	> 100 µM	4.9 µM	> 100 µM	7.08 µM	25.4 µM	5.33 µM	> 100 µM	3.42 µM	15.5 µM	11.2 µM	60.7 µM	14.5 µM	58.1 µM
CN(C)c1ccc(/C=C\C2=[N+](C)c3ccccc3C2(C)C)cc1	1.77 µM	> 100 µM	0.51 µM	21.5 µM	0.709 µM	19.9 µM	0.703 µM	> 67.4 µM	0.455 µM	30.7 µM	1.49 µM	19.9 µM	0.453 µM	> 100 µM	1.22 µM	12.9 µM	2.48 µM	> 41.2 µM	1.45 µM	27.7 µM
